Laboratory results published in patent US5650550A, “Mutant mice having a deficit of functional estrogen receptors” (The United States of America as represented by the …, priority 1995, dated 1997).

Tested on: adult female mice (uterus, vagina)
Assay: Estrogen responsiveness bioassay in adult females (uterine wet weight, hyperemia, vaginal epithelial cytology)
Format: in vivo, mouse
Details: for vaginal histology: after estradiol treatment; for increase in uterine wet weight: treated for three days, compared to untreated control

Question: What does the source list for `C[C@]12CC[C@@H]3c4ccc(O)cc4CC[C@H]3[C@@H]1CC[C@@H]2O` [estradiol]?
Answer: vaginal histology (ER disrupted animals): unaltered; uterine water imbibition or uterine hyperemia (ER disrupted animals, treatment for 4-6 hours): no uterine water imbibition or uterine hyperemia; increase in uterine wet weight (heterozygous animals): 3-4 fold; increase in uterine weight or hyperemia (homozygous ER disrupted animals, three day bioassay): did not respond; uterine hyperemia (wild type and heterozygotes, three day bioassay): became hyperemic; vaginal histology (wild type and heterozygous animals): increase in number of cornified epithelial cells; increase in uterine wet weight (wild type animals): 3-4 fold
